Results: patent US9629857B2, “Therapeutic uses of glutathione mimics” (BOARD OF TRUSTEES OF NORTHERN ILLINOIS UNIVERSITY, priority 2007, dated 2017)

How the values were obtained:
alkaline phosphatase = assay: Digestion of the phosphorylated prodrug with alkaline phosphatase, followed by 31P NMR; assay type: in vitro ADME; settings: 1 mg (10 units) alkaline phosphatase in water, stirred for 2 hours
Description: N-acetyl-S-phosphocysteine was synthesized according to the procedure followed by Binkely (1954). N-acetyl cysteine (0.5 g) was dissolved in 8 mL of distilled water in an ice bath. The NAC solution was then treated with 0.2 mL of phosphorus oxychloride and with sodium hydroxide to maintain the basic pH of 11. The resulting white solid was dried and re-dissolved in deuterium oxide for ^31P, ^13C and ^1H NMR analysis. After analysis, the sample was dried, re-suspended in water, and treated with 1 mg (10 units) of alkaline phosphatase, and stirred for 2 hours. The solution was dried and resuspended in deuterium oxide for NMR analysis.
Synthesis of ester cysteine was followed according to the procedure as follows. NAC (0.2 g) was dissolved in 7 mL of ethanol, 2 mL of concentrated hydrochloric acid and stirred at room temperature for 1 hour. The reaction mixture was refluxed for 1 hour at 60° C. The sample was then dried and resuspended in acetonitrile for ESI-MS analysis (same instrument settings as described for analysis of HIDD). The acid protected sample was phosphorylated with POCL3, and sodium hydroxide dried and resuspended in deuterium oxide for NMR analysis. After analysis, the sample was dried, resuspended in water, treated with 1 mg (10 units) of alkaline phosphatase and stirred for 2 hours. […]
The ester NAC was synthesized according to the procedure as follows and analyzed with ESI-MS. […]

[1] = after first pass metabolism; cited from earlier work

Row | SMILES | cleavage of S—P linkage on digestion with alkaline phosphatase (31P NMR) (alkaline phosphatase) | presence of free drug in the systemic circulation [1]
1 | CC(=O)N[C@@H](CSP(=O)(O)O)C(=O)O [phosphorylated NAC, N-acetyl-S-phosphocysteine] | hydrolyzed with alkaline phosphatase | –
2 | CC(=O)N[C@@H](CS)C(=O)O [NAC, N-acetyl cysteine] | – | around 9%
